Where two headings read alike, the source gives them in different places.
Key:
[1] = test system: human lung cancer NCI-H460 cell; experiment: MTT proliferation assay, NCI-H460; format: cell-based; settings: NCI-H460, 96 h, read-out: IC50 (nM), proliferation of NCI-H460 cell
Protocol: The cells were digested by trypsinase and centrifuged at 800 rpm for 5 minutes, the supernatant was discarded, and the residual was resuspended with fresh medium […]) and counted.
(§1) The cells were seeded into 96-well cell culture plate with a density of 2000/4000 cells per well and incubated overnight in a 5% CO2 incubator at 37° C. […] 5 μL diluent of each concentration was added to 120 μL of medium (25 times diluted) and mixed by shaking. The overnight cell plates were taken and the culture medium was removed, 195 μL of fresh medium was added to each well, and 5 μL of diluted medium containing the corresponding concentration of the test compound was added respectively (the final concentration of DMSO is 1%), and the culture plate was then placed in a 5% CO2 incubator at 37° C. for 4 days. After removing the original solution, 100 μL of fresh serum-free DMEM medium containing MTT (0.5 mg/mL) was added to each well, the culture was continued. […] Cell viability (%)=(ODcompound−ODbackground)/(ODDMSO−ODbackground)×100. GraphPad Prism 6.0 was used to analyze the data. The inhibitory activity of compounds on cell proliferation was plotted based on cell viability and the logarithm of compound concentration. The IC50 value was fitted by a sigmoidal dose response curve equation Y−100/(1+10^(LogC−LogIC50)), wherein C was the concentration of compound.

[2] = test system: human colon cancer LoVo cell; experiment: MTT proliferation assay, LoVo; format: cell-based; settings: Homo sapiens, LoVo, 96 h, read-out: IC50 (nM), proliferation of LoVo cell
Protocol: as §1, with “[…]” for “100 μL”, “viability (%)=(ODcompound−ODbackground)/ODDMSO−ODbackground)×100.” for “viability (%)=(ODcompound−ODbackground)/(ODDMSO−ODbackground)×100.”, “The IC5.0” for “The IC50”, “equation Y=100/(1+10^(LogC-LogIC50)),” for “equation Y−100/(1+10^(LogC−LogIC50)),”

[3] = biological target: T1, ATR/ATRIP enzyme (Homo sapiens, UniProt Q13535); experiment: ATR enzyme activity experiment (HTRF); format: biochemical; settings: p53 substrate, 30 min room temperature, read-out: IC50 (nM), inhibitory effect on ATR kinase activity
T1 construct: purchased Eurofins 14-953
T1 sequence (Q13535 whole entry): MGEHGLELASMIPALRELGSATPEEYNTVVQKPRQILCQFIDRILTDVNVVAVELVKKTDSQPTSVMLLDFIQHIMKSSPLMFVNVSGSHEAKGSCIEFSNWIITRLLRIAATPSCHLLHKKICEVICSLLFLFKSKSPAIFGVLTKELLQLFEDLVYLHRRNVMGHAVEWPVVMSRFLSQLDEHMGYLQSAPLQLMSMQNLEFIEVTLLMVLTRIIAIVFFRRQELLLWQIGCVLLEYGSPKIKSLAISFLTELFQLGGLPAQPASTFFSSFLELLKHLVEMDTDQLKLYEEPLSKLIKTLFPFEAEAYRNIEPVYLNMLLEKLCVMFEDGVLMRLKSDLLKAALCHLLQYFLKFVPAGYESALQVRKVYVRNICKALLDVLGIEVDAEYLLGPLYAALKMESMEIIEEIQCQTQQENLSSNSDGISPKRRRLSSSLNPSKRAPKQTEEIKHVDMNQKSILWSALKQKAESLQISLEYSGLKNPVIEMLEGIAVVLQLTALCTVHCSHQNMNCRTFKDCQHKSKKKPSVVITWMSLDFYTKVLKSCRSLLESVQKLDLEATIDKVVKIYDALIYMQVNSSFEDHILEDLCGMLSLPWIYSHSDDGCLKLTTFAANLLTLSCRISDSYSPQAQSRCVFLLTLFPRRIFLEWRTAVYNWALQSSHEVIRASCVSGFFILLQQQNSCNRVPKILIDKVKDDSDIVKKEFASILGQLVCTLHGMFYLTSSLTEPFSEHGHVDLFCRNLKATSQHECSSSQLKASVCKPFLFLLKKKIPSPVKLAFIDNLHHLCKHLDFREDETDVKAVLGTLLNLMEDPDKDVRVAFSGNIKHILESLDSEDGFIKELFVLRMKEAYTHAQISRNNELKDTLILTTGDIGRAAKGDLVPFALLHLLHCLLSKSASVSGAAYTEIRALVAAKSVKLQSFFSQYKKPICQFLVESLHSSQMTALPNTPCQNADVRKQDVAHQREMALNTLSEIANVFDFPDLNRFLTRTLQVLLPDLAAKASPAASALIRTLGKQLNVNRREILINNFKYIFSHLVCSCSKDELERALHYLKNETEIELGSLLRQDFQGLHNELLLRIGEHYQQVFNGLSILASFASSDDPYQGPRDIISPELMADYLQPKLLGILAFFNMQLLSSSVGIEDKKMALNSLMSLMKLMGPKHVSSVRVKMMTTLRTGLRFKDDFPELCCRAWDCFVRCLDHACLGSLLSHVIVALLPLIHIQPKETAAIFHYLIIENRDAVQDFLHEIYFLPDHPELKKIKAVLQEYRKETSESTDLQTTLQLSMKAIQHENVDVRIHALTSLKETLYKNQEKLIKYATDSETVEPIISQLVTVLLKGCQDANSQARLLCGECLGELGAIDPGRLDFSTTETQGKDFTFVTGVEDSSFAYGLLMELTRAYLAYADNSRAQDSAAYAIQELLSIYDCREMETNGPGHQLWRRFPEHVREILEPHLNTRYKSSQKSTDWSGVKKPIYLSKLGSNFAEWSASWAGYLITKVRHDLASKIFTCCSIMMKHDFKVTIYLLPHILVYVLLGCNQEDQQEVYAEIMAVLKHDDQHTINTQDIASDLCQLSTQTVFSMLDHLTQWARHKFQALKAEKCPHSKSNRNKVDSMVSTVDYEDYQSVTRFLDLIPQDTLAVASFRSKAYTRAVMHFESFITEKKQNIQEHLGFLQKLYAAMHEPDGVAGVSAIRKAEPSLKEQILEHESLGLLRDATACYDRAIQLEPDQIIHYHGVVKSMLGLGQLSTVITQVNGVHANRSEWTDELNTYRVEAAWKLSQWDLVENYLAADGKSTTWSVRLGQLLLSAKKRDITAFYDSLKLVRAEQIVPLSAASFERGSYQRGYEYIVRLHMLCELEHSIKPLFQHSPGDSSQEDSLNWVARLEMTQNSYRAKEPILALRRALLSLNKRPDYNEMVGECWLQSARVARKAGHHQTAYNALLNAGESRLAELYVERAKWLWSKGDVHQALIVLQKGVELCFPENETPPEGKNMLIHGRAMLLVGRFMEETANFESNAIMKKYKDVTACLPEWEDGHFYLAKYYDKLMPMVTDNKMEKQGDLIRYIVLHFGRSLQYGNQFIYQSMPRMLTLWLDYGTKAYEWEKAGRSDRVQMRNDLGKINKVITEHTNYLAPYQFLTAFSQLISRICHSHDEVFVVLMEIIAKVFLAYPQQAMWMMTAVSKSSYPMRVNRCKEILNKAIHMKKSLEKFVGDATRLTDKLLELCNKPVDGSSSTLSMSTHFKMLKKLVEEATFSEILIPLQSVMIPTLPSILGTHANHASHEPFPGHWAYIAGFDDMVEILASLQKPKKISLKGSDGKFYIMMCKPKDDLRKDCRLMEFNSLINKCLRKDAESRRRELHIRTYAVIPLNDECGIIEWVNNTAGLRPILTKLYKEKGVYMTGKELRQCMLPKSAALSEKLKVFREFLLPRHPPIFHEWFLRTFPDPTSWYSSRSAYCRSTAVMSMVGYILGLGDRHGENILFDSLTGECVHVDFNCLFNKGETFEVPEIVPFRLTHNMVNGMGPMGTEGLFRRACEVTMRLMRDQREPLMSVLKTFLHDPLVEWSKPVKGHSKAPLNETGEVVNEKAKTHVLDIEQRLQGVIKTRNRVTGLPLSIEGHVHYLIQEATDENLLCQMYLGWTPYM
T1 sequence (Q8WXE1 whole entry partner): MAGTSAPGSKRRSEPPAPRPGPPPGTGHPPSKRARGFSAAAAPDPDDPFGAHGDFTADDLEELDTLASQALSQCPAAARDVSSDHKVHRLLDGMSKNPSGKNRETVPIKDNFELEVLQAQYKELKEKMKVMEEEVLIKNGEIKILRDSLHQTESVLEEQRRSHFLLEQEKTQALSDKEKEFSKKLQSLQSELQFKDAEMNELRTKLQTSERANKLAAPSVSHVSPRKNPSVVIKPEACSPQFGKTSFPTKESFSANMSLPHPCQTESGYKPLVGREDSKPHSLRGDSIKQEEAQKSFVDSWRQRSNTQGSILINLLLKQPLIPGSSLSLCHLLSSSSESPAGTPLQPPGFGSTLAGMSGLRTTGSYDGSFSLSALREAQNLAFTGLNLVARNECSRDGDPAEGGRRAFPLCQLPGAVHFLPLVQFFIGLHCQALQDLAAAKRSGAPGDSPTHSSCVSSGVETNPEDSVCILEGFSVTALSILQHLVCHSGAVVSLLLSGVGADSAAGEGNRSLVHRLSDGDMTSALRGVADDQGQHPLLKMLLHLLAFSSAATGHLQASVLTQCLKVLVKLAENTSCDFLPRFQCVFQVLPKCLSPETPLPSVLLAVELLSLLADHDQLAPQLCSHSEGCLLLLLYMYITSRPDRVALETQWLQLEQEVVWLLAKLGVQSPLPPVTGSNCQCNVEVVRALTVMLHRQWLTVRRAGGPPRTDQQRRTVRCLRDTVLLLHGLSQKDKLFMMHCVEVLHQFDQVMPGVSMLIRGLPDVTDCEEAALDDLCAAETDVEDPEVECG
Protocol: The mixture was centrifuged at 1000 rpm for 1 minute, and reacted at room temperature protected from light for 30 minutes. Then 5 μL of EDTA stop solution (250 mM) was added to stop the reaction.

[4] = Pharmacokinetics following single oral administration to mice; format: in vivo; settings: mouse, CD-1 (ICR) mice, gavage 10 mg/kg, 0.5% methylcellulose/water suspension, plasma
Protocol: The compound of the present invention was formulated into a 0.5% methylcellulose/water uniform suspension, and was administered to CD-1 (ICR) mice by gavage at 10 mg/kg. Plasma samples were collected at 8 time points of 0.250, 0.500, 1.00, 2.00, 4.00, 6.00, 8.00 and 24.0 hours post-dose. Concentrations of the compound were determined by LC-MS/MS method.

Row | Structure (SMILES) | IC50 [1] | IC50 [2] | IC50 [3] | AUC(0-inf) [4] | AUC(0-t) [4] | Cmax [4] | half-life [4] | IC50 ([1]; MTT, 4 days) | IC50 ([2]; MTT, 4 days)
1 | CC(C)c1nc(-c2ccn[nH]2)n2nc(N3CCOC[C@H]3C)cc(-c3ccnn3C)c12 [Example 26, (R)-4-(5-isopropyl-4-(1-methyl-1H-pyrazol-5-yl)-7-(1H-pyrazol-5-yl)imidazo[1,5-b]pyridazin-2-yl)-3-methylmorpholine] | – | – | 1 nM | 49000 ng·h/mL | 46400 ng·h/mL | 7180 ng/mL | 5.82 h | 22.8 nM | 27.4 nM
2 | Cc1nc(-c2ccn[nH]2)n2nc(N3CCOC[C@H]3C)cc(-c3ccccc3F)c12 [Example 14, (R)-4-(4-(2-fluorophenyl)-5-methyl-7-(1H-pyrazol-5-yl)imidazo[1,5-b]pyridazin-2-yl)-3-methylmorpholine] | – | – | 10 nM | 78700 ng·h/mL | 77300 ng·h/mL | 10800 ng/mL | 3.75 h | 32 nM | 26.2 nM
3 | Cc1ncccc1-c1cc(N2CCOC[C@H]2C)nn2c(-c3ccn[nH]3)nc(C)c12 [Example 4, (R)-3-methyl-4-(5-methyl-4-(2-methylpyridin-3-yl)-7-(1H-pyrazol-5-yl)imidazo[1,5-b]pyridazin-2-yl)morpholine] | – | – | 3 nM | 44000 ng·h/mL | 43400 ng·h/mL | 9010 ng/mL | 3.2 h | 13 nM | 26.9 nM

Further compounds by falling IC50 [3], results first:

Row | IC50 [1] | IC50 [2] | IC50 [3] | AUC(0-inf) [4] | AUC(0-t) [4] | Cmax [4] | half-life [4] | IC50 ([1]; MTT, 4 days) | IC50 ([2]; MTT, 4 days) | Structure (SMILES)
4 | – | – | 3 nM | 31700 ng·h/mL | 30800 ng·h/mL | 8930 ng/mL | 3.42 h | 17.8 nM | 25.5 nM | Cc1nc(-c2ccn[nH]2)n2nc(N3CCOC[C@H]3C)cc(-c3cccnc3C(F)(F)F)c12 [Example 5, (R)-3-methyl-4-(5-methyl-7-(1H-pyrazol-5-yl)-4-(2-(trifluoromethyl)pyridin-3-yl)imidazo[1,5-b]pyridazin-2-yl)morpholine]
5 | 28 nM | 38.8 nM | 2 nM | 171000 ng·h/mL | 162000 ng·h/mL | 15400 ng/mL | 5.4 h | – | – | CCc1nc(-c2ccn[nH]2)n2nc(N3CCOC[C@H]3C)cc(-c3ccnn3C)c12 [Example 24, (R)-4-(5-ethyl-4-(1-methyl-1H-pyrazol-5-yl)-7-(1H-pyrazol-5-yl)imidazo[1,5-b]pyridazin-2-yl)-3-methylmorpholine]

— patent US20240059695A1, “SUBSTITUTED IMIDAZO[1,5-b]PYRIDAZINE COMPOUNDS AS KINASE INHIBITORS AND USE THEREOF” (IMPACT THERAPEUTICS (SHANGHAI), INC, priority 2020, published 2024)
